Values joined by “and” are separate entries in the source; they are usually repeats but may differ in a detail not shown here. Equal entries are not always repeated. Where two headings read alike, the source gives them in different places. Values belong to the molecule of their own block, whether it stands above or below them.
Tests used:
BT-20 = test: Growth inhibition (sulforhodamine B assay), single agents and combination; type: cell-based, human
Procedure: (§1) The following human breast tumor cell lines, obtained from Dr. R. Sutherland (Garvan Institute, Sydney, Australia) were tested: T-47D, BT-20 and MCF-7. The following human neuroblastoma cell lines, purchased from ATCC, were tested: SK-N-BE, SK-N-SH, SK-N-MC, and GI-LI-N. All cell lines were grown in monolayer, in medium containing 10% fetal bovine serum (Invitrogen) in 5% CO2 at 37° C. The medium for A2780, A2780/HPR, IGROV-1, OVCA432, SKOV-3, T-47D, BT-20, MCF-7, GI-LI-N and SK-N-BE cells was RPMI 1640 (Cambrex, Verviers, Belgium) and the medium for OAW42, SK-N-MC and SK-N-SH cells was EMEM (ATCC).
(§2) For the growth inhibition assays, cells were seeded at a density of 3500 cells per well in 96 cluster tissue culture plates, and treated 24 hr after seeding with different concentrations of 4-oxo-4-HPR or 4-HPR. 4-oxo-4-HPR was dissolved in absolute ethanol and 4-HPR (obtained from Dr. J. A. Crowell —NCI Bethesda, Md., USA) was dissolved in Me2SO. […] Control cultures received the same amount of ethanol or Me2SO as the treated cultures. 72 hr after treatment cell number was estimated by using the sulforhodamine B assay according to Monks et al., (J. Natl. Cancer, 1991, 11: 757–766). The survival of treated cells was calculated for the various drug concentrations as percentage of the survival of control cells. The antiproliferative activity of 4-oxo-4-HPR and 4-HPR in each cell line, was tested in three separate experiments and the average values ±SD are reported in FIGS. 2, 3, and 4.
(§3) The antiproliferative effect of the combination of the two drugs, administered at one single dose, was also tested in other ovarian carcinoma cell lines and in breast tumor cell lines. The type of interaction between 4-HPR and 4-oxo-4-HPR was assessed by the method of Drevinko et al., as described in Cancer Biochem. Biophys., 1976, 1:187–195. For this evaluation the drugs were assumed to provide independent effects. The combination index (CI) was calculated as follows: survival fraction (SF) of the combination of 4-HPR+4-oxo-4-HPR divided by (SF 4-HPR×SF 4-oxo-4-HPR). The results for CI are defined as follows: CI=1 indicates an additive effect, CI<1 indicates a supra-additive effect and CI>1 indicates a sub-additive effect.

MCF-7 = test: as above; type: cell-based, human; conditions: for IC50: Homo sapiens, read-out: 50% Inhibitory Concentrations (IC50) at 72 h; for Survival (% control cells): single agent 1 μM
Procedure: as §1, §2, §3

T-47D = test: as above; type: cell-based, human; conditions: for IC50: Homo sapiens, T47D, read-out: 50% Inhibitory Concentrations (IC50) at 72 h; for IC50 / Survival (% control cells): 72 h; for Survival (% control cells): single agent 1 μM
Procedure: as §1, §2, §3

A2780 = test: as above; type: cell-based; conditions: Homo sapiens, read-out: 50% Inhibitory Concentrations (IC50) at 72 h
Procedure: The following human ovarian carcinoma cell lines were tested: A2780 was obtained from Dr. R. F. Ozols (National Cancer Institute, Bethesda, Md., USA); IGROV-1 was obtained from Dr. J. Benard (Villejuif, France); OVCA432 was obtained from Dr. R. C. Knapp (Boston, Mass., USA); OAW42 and SKOV-3 were purchased from ATCC (Rockville, Md., USA). A2780/HPR, a 4-HPR— resistant ovarian carcinoma cell line, was obtained in our laboratory by continuous exposure of A2780 cells to increasing concentrations of 4-EPR as previously described (Appierto et al., Br. J. Cancer, 2001, 84:1528–1534; Prinetti et al., J. Biol. Chem., 2003, 278:5574–5583). Briefly, cells surviving 60 transplants in 4-HPR —containing medium (3 transplants at 1 μM, 11 transplants at 2 μM, 8 transplants at 3 μM, and 38 transplants at 5 μM) were cloned by limiting dilution. […]
For the growth inhibition assays, cells were seeded at a density of 3500 cells per well in 96 cluster tissue culture plates, and treated 24 hr after seeding with different concentrations of 4-oxo-4-HPR or 4-HPR. […] The survival of treated cells was calculated for the various drug concentrations as percentage of the survival of control cells. […]
Studies were performed to assess whether 4-oxo-4-HPR potentiates the tumor growth inhibitory effects of 4-HPR. […] The fractional survival (f) after 3 days of treatment was calculated for each experimental condition. […]

SK-N-MC = test: Growth inhibition (sulforhodamine B assay); type: cell-based, human; conditions: for IC50: Homo sapiens, 72 h, read-out: 50% Inhibitory Concentrations (IC50) at 72 h
Procedure: as §1, §2

SK-N-SH = test: Growth inhibition (sulforhodamine B assay); type: cell-based, human; conditions: for IC50: Homo sapiens, 72 h, read-out: 50% Inhibitory Concentrations (IC50) at 72 h
Procedure: as §1, §2

SK-N-BE = test: Growth inhibition (sulforhodamine B assay); type: cell-based, human; conditions: for IC50: Homo sapiens, 72 h, read-out: 50% Inhibitory Concentrations (IC50) at 72 h
Procedure: as §1, §2

GI-LI-N = test: Growth inhibition (sulforhodamine B assay); type: cell-based, human; conditions: for IC50: Homo sapiens, 72 h, read-out: 50% Inhibitory Concentrations (IC50) at 72 h
Procedure: as §1, §2

SKOV-3 = test: Growth inhibition (sulforhodamine B assay); type: cell-based; conditions: Homo sapiens, read-out: 50% Inhibitory Concentrations (IC50) at 72 h
Procedure: (§4) The following human ovarian carcinoma cell lines were tested: A2780 was obtained from Dr. R. F. Ozols (National Cancer Institute, Bethesda, Md., USA); IGROV-1 was obtained from Dr. J. Benard (Villejuif, France); OVCA432 was obtained from Dr. R. C. Knapp (Boston, Mass., USA); OAW42 and SKOV-3 were purchased from ATCC (Rockville, Md., USA). A2780/HPR, a 4-HPR— resistant ovarian carcinoma cell line, was obtained in our laboratory by continuous exposure of A2780 cells to increasing concentrations of 4-EPR as previously described (Appierto et al., Br. J. Cancer, 2001, 84:1528–1534; Prinetti et al., J. Biol. Chem., 2003, 278:5574–5583). Briefly, cells surviving 60 transplants in 4-HPR —containing medium (3 transplants at 1 μM, 11 transplants at 2 μM, 8 transplants at 3 μM, and 38 transplants at 5 μM) were cloned by limiting dilution. […] Therefore, A2780/HPR cells were continuously maintained in 5 μM 4-HPR and seeded without 4-HPR in all the experiments performed to test their sensitivity to 4-oxo-4-HPR.
as §1, §2

OAW42 = test: Growth inhibition (sulforhodamine B assay); type: cell-based; conditions: Homo sapiens, read-out: 50% Inhibitory Concentrations (IC50) at 72 h
Procedure: as §4, §1, §2

SW626 = test: Antiproliferative effect, single agents and combination; type: cell-based, human; conditions: single agent 1 μM, 72 h, single experiments
Procedure: as §2
as §3, with “For this evaluation the drugs were assumed to provide independent effects.” left out, “The results for CI are defined as follows: CI=1 indicates an additive effect, CI<1 indicates a supra-additive effect and CI>1 indicates a sub-additive effect.” left out

IC50 (BT-20; Homo sapiens; BT-20; 72 h; read-out: 50% Inhibitory Concentrations (IC50) at 72 h): 7 µM
IC50 (MCF-7; MCF7, MCF-7, 72 h): 3 µM
IC50 (T-47D; T-47D): 4 µM
IC50 (A2780; A2780, 72 h, calculated from graphs): 1.5 µM
IC50 (SK-N-MC): 0.7 µM
IC50 (SK-N-SH): 5 µM
IC50 (SK-N-BE; SK-N-BE): 5 µM
IC50 (SKOV-3; SK-OV-3, SKOV-3, 72 h): 8 µM
Compound: CC1=C(/C=C/C(C)=C/C=C/C(C)=C/C(=O)Nc2ccc(O)cc2)C(C)(C)CCC1 [4-HPR, N-(4-hydroxyphenyl)retinamide, reference compound]
Survival (% control cells) (BT-20; BT-20; single agent 1 μM; 72 h): 89 % control cells
Survival (% control cells) (MCF-7; MCF-7, 72 h): 86 % control cells
Survival (% control cells) (T-47D; T-47D): 90 % control cells
IC50 (GI-LI-N; GI-LI-N): 0.7 µM
IC50 (OAW42; OAW-42, OAW42, 72 h): 10 µM
Survival (% control cells) (SW626): 96 % control cells and 98 % control cells

Compound: CC1=C(/C=C/C(C)=C/C=C/C(C)=C/C(=O)Nc2ccc(O)cc2)C(C)(C)CCC1=O [4-oxo-4-HPR, 4-oxo-N-(4-hydroxyphenyl)retinamide]
tumor cell survival (FIG. 3), compared with 4-HPR, in words (BT-20; BT-20; 72 hr): more potent than 4-HPR
Survival (% control cells) (BT-20; BT-20; single agent 1 μM; 72 h): 70 % control cells
IC50 (BT-20; Homo sapiens, BT-20, 72 h, read-out: 50% Inhibitory Concentrations (IC50) at 72 h): 2 µM
IC50 (MCF-7; MCF7, 72 h): 1.5 µM
tumor cell survival (FIG. 3), compared with 4-HPR, in words (MCF-7; MCF-7, 72 hr): more potent than 4-HPR
Survival (% control cells) (MCF-7; MCF-7, 72 h): 56 % control cells
IC50 (T-47D): 2.5 µM
tumor cell survival (FIG. 3), compared with 4-HPR, in words (T-47D; T-47D, 72 hr): similarly effective
Survival (% control cells) (T-47D; T-47D): 94 % control cells
IC50 (A2780; A2780, 72 h): 0.6 µM
cell sensitivity (FIG. 4), compared with 4-HPR, in words (SK-N-MC; 72 hr): more sensitive only at the lowest concentration tested (0.3 μM)
IC50 (SK-N-MC): 0.4 µM
cell sensitivity (FIG. 4), compared with 4-HPR, in words (SK-N-SH; 72 hr): more sensitive to 4-oxo-HPR than to 4-HPR
IC50 (SK-N-SH): 3 µM
IC50 (SK-N-BE): 1 µM
cell sensitivity (FIG. 4), compared with 4-HPR, in words (SK-N-BE; SK-N-BE, 72 hr): more sensitive to 4-oxo-HPR than to 4-HPR
cell sensitivity (FIG. 4), compared with 4-HPR, in words (GI-LI-N; GI-LI-N, 72 hr): equally sensitive
IC50 (GI-LI-N): 0.6 µM
IC50 (SKOV-3; SK-OV-3, 72 h): 2 µM
IC50 (OAW42; OAW-42, 72 h): 3 µM
Survival (% control cells) (SW626): 90 % control cells and 98 % control cells

— patent US7169813B2, “4-oxo-fenretinide, administered alone and in combination with fenretinide, as preventive and therapeutic agent for cancer” (Fondazione IRCCS “Istituto Nazionale Dei Tumori”, priority 2004, dated 2007)
